From US7629308B2, “Methods relating to muscle selective calcineurin interacting protein (MCIP)” (Board of Regents, The University of Texas System, priority 2000, dated 2009)
“And” between values parts separate entries of the source, which are not always exact repeats. Equal entries are not always repeated.

How the values were obtained:
[1] = test system: MCIP1 mRNA; assay: Northern blot of MCIP1 mRNA in C2C12 cells; assay type: cell-based, mouse
Experimental: (§1) Tissue culture, cell transfection or infection, reporter gene assays: C2C12 myoblasts and myotubes were cultured as previously described (Grayson et al, 1995). Ionomycin ([…]) and cyclosporin A (50 to 200 nM) were added 4 hrs prior to harvesting the cells. When included, cyclohexamide (25 mM) was added 15 min prior to ionomycin. Transient transfection with plasmids or infection with recombinant, replication-defective adenoviruses, and luciferase assays were performed as previously reported (Chin et al, 1998; Rothermel et al., 2000; Wu et al., 1973).
(§2) RNA isolation and Northern blot analysis: Total RNA was prepared from mouse tissues or C2C12 cells using Tripure (Boehringer Mannheim, Inc.) following the manufacturer's protocol. Northern blot analysis was performed with […] of total RNA in each lane and probed in Ultrahyb (Ambion) with complementary sequences representing the 3′ UTR of MCIP1 (common to all known splicing variants), exon 1 of MCIP1, exon 4 of MCIP1, or ORF segments of MCIP2 or GAPDH cDNA. Probes were generated by PCR and labeled as described previously (Rothermel et al., 2000). Signals from Northern blots were detected on a Storm PhosphorImager (Molecular Dynamics) and quantified using ImageQuant (version 1.2).

[2] = test system: MCIP2 mRNA; assay: Northern blot of MCIP2 mRNA in C2C12 cells; assay type: cell-based, mouse
Experimental: as §1, §2

[3] = test system: MCIP1 mRNA; assay: Northern blot of MCIP1 mRNA in mouse heart and soleus; assay type: in vivo
Experimental: (§3) Animal experiments: Lines of transgenic mice in which the cc myosin heavy chain promoter is used to drive expression of a constitutively active form of calcineurin selectively in the heart were generated and described previously (Molkentin et al., 1998). Wildtype male C57B1/6 mice were injected intraperitoneally with 3, 5, 3′-triiodothyromine (T3) ([…]) or an equal volume of 0.9% saline once a day for ten days (Robbins & Swain, 1992). All experiments involving animals were conducted using IACRAC-approved protocols.
as §2

[4] = test system: MCIP2 mRNA; assay: Northern blot of MCIP2 mRNA in mouse heart and soleus; assay type: in vivo
Experimental: as §3, §2

[5] = test system: cardiac hypertrophy; assay: Hyperthyroid cardiac hypertrophy induced by T3 injection; assay type: in vivo, mouse; details: ten days i.p.; n=4
Experimental: as §3

[6] = test system: cardiac hypertrophy; assay: Cardiac hypertrophy after isoproterenol infusion or wheel running exercise; assay type: in vivo, mouse
Experimental: Intact animal studies: In addition to the genetic cross to α-MHC-CnA* animals, α-MHC-hMCIP1 transgenic mice and wild-type littermates were subjected to two independent stimuli known to provoke cardiac hypertrophy. Twelve-week old and 28-week old male mice were surgically implanted with a subcutaneous mini-osmotic pump (Alzet model 2001) that released isoproterenol in 0.9% NaCl at a rate of 28 mg per hour per […] of body weight over a seven day period. Control pumps delivered a 0.9% NaCl solution. Hearts were harvested on day eight. The heart body weight ratio (htw/bw) of isoproterenol-treated, animals were compared to the mean htw/bw ratio of age matched saline-treated animals of the same genotype. For exercise-induced hypertrophy, 28-week old male animals were placed in individual cages where they had free access to a running wheel. The number of revolutions was monitored continuously for 28 days. The animals ran an average of 3 to 5 kilometers a day. The heart body weight ratios (htw/bw) of the exercised animals were compared to the mean htw/bw ratios of age-matched sedentary animals of the same genotype. A Wilcoxon rank sum test was used to determine statistically significant differences among treatment groups (p<0.05). All animal protocols were reviewed and approved by the appropriate institutional review boards.

[7] = test system: calcineurin; assay: Luciferase reporter assays of calcineurin-dependent transcription in C2C12 cells; assay type: cell-based, mouse
Source text: (§4) GST-MCIP1 fusions were expressed from the bacterial expression plasmid pGEX-CS (T. D. Parks, et al. 1994). Luciferase reporter plasmids, Mb-luc and IL-2-luc, were constructed in pGL3 (Promega) by inserting promoter/enhancer regions from genes encoding human myoglobin (Chin et al., 1998) or IL-2 (Clipstone et al., 1992), respectively. In addition, a synthetic enhancer consisting of three copies of a high affinity MEF2 binding sequence from the desmin promoter (Naya et al., 2000) was linked to a minimal promoter (hsp68) and inserted into pGL3 yielding the des-MEF-luc reporter. The β-galactosidase reporter plasmid pCMV-lacZ (J. Grayson, et al. 1998), and expression vectors encoding constitutively active forms of NFAT (Molkentin et al., 1998), calcineurin (CnA*) (Chin et al., 1998, O'Keefe et al., 1992), or calmodulin dependent protein kinase type IV (CaMKIV) (Ho et al., 1996), were previously described. The identity of plasmid constructions was confirmed by restriction mapping and partial DNA sequencing.
(§5) Myoblasts were harvested 24 h after transfection.
Cell culture studies: C2C12 myoblasts were maintained and transfected as previously described (Rothermel et al., 2000). Luciferase assays of whole cell extracts were performed as previously described (Rothermel et al., 2000). All results were corrected for variations in transfection efficiency by normalization to expression of a cotransfected pCMV-LacZ plasmid.

[8] = biological target: T1, calcineurin A (Mus musculus, UniProt P63328); assay: In vitro protein-protein interaction assay (GST pull-down); assay type: binding
T1 construct: calcineurin A (amino acids 1-398) was translated in rabbit reticulocyte lysates; made in house; host or cells: calcineurin A: rabbit reticulocyte lysate (TNT coupled transcription/translation, Promega); GST-MCIP1: bacteria (pGEX-CS)
Experimental: In Vitro Protein-Protein Interaction Assays—GST and GST-MCIP1 fusion proteins were prepared as described previously (Grayson et al., 1998). [^35S]Methionine labeled CnA398, CnA342, and CnA266 were produced in the TNT coupled in vitro transcription/translation system (Promega). For in vitro binding assays, equivalent amounts of GST fusion proteins bound to glutathione were resuspended in 500 μl of binding buffer (20 mM Tris, pH 7.5, 100 mM KCl, 0.1 mM EDTA, 0.05% Nonidet P-40, 10% glycerol, and 1 mg/ml bovine serum albumin). [^35S]Methionine-labeled CnA proteins were added to the resuspended GST fusion proteins and incubated for 1 h. The beads were then spun down and washed three times in binding buffer. An equal volume of 2×SDS-PAGE loading buffer was added, and the suspension was boiled for 3 min. The bound proteins were then resolved on SDS-PAGE and visualized by autoradiography. ^35S-Labeled luciferase protein (Promega) was used as a negative control. For estimation of binding efficiency, 25% of the radiolabeled protein was loaded as an input control.

[9] = test system: constitutively active form of NFATc; assay: IL-2-luc reporter driven by constitutively active NFAT in C2C12 cells; assay type: cell-based, mouse
Source text: as §4, §5

[10] = test system: Gal4-VP16; details: C2C12 cells
Experimental: Tissue Culture, Cell Transfection, and Reporter Gene Assays—C2C12 myoblasts were grown in Dulbecco's modified Eagle's medium supplemented with 20% fetal bovine serum and antibiotics (100 units of penicillin and 100 g of streptomycin/ml). Myotube formation was induced by switching confluent cells to differentiation media (Dulbecco's modified Eagle's medium supplemented with 2% heat-inactivated horse serum) for 48-72 h. For transient transfection assays, C2C12 cells were plated 12 h before transfection in 12-well tissue culture dishes at 5×10^4 cells/well, and transfected with a total of 0.5 μg of plasmid DNA using LipofectAMINE Plus (Life Technologies, Inc.). Myoblasts were harvested 24 h after transfection. Myotubes were obtained by shifting cultures to differentiation media 24 h after transfection and harvesting 48 h later. To stimulate transfected cells, 1 μM ionomycin and 10 ng/ml phorbol myristate acetate (PMA) were added 4.5 h prior to harvesting. Luciferase assays of whole cell extracts were conducted as described previously (Yang et al., 1997).

[11] = C2C12, single culture dish, normalized to GAPDH mRNA
[12] = Heart, i.p. once a day for ten days
[13] = Soleus, pooled muscles from two animals

`C[C@H](CCC(=O)O)C[C@H](C)C[C@H](C)C(=O)/C=C(\O)[C@H](C)C[C@H](C)C/C=C/[C@@H](C)[C@@H](O)[C@@H](C)[C@@H](O)C[C@@H]1CC[C@@](C)([C@H]2CC[C@@](C)([C@@H](C)O)O2)O1` [Ionomycin, ionomycin] was tested. Which “MC1P1 (fold change in mRNA), Response to Calcineurin Activation” value [1, 11] did it give?
Its value is 2.42 fold and 1.94 fold and 1.26 fold.

What about the “up-regulation of MCIP1 mRNA in the presence of cyclohexamide” value ([1]; C2C12 cells, cyclohexamide added 15 min prior) of the same compound?
Its value is about 10 fold.

What about the “induction of MCIP1 mRNA” value ([1]; C2C12 myoblasts or myotubes, cyclohexamide absent) of the same compound?
The value was 2 fold.

What about the “increase of MCIP1 mRNA in the absence of cyclosporin” value ([1]; compared to cells treated with the highest dose of cyclosporin) of the same compound?
Its value is 4 fold.

And the “MC1P2 (fold change in mRNA), Response to Calcineurin Activation” value [2, 11]?
Its value is 0.94 fold and 1.00 fold and 1.12 fold.

And the “expression of MCIP2 mRNA” value ([2]; C2C12 cells)?
The value was “unaffected”.

How did the “MC1P1 (fold change in mRNA), Response to Thyroid Hormone” value [3, 12] turn out when `N[C@@H](Cc1cc(I)c(Oc2ccc(O)c(I)c2)c(I)c1)C(=O)O` [T3, 3,5, 3′-triiodothyromine] was run?
The value was 1.05 fold and 0.87 fold and 1.08 fold.

And the “MC1P1 (fold change in mRNA), Response to Thyroid Hormone” value [3, 13]?
The value was 0.78 fold and 1.05 fold and 1.24 fold.

What about the “T3 Effect, MC1P1 (aggregate fold change, mean ±SE)” value ([3]; heart and soleus) of the same compound?
Its value is 1.01 ± 0.06 fold.

What about the “expression of MCIP1 in hyperthyroid hearts” value ([3]; heart, ten days) of the same compound?
Its value is “unaltered”.

And the “MC1P2 (fold change in mRNA), Response to Thyroid Hormone” value [4, 12]?
Its value is 1.59 fold and 1.81 fold and 1.71 fold.

And the “MC1P2 (fold change in mRNA), Response to Thyroid Hormone” value [4, 13]?
Its value is 1.72 fold and 2.21 fold and 1.62 fold.

And the “increase of MCIP2 transcript levels” value ([4]; both heart and soleus skeletal muscles)?
The value was “approximately 2 fold”.

What about the “T3 Effect, MC1P2 (aggregate fold change, mean ±SE)” value ([4]; heart and soleus) of the same compound?
Its value is 1.78 ± 0.01 fold.

What about the mean heart weight [5] of the same compound?
Its mean heart weight is 180 mg.

And the “mean heart weight/body weight ratio” value [5]?
The value was 7.2 mg/gm.

Which “percent increase in heart weight to body weight ratio” value ([6]; male wild-type mice, isoproterenol by osmotic minipump over seven days) does the source give for `CC(C)NCC(O)c1ccc(O)c(O)c1` (stereo not shown) [isoproterenol] here?
Its value is 22.8±1.95%.

How did the “percent increase in heart weight to body weight ratio” value ([6]; α-MHC-hMCIP1 transgenic mice, isoproterenol over seven days) turn out when “MCIP1: myocyte-enriched calcineurin interacting protein 1, product of human gene DSCR1; expressed from transfected plasmid or transgene” was run?
Its value is 9.4±0.87%.

What about the “effect on activation of the des-MEF2-luc reporter by CnA* alone or CnA* with CaMKIV” value ([7]; C2C12 cells) of the same compound?
Its value is “inhibited”.

And the “effect on calcineurin response of the MCIP1 (−874 to +30)-luciferase reporter” value ([7]; C2C12 cells, not shown)?
Its value is “represses this response”.

And the “effect on activation of IL-2 and Mb enhancer constructs by CnA*” value ([7]; C2C12 myoblasts and myotubes)?
The value was “abolished”.

What about the “inhibition of calcineurin induction of the IL-2-Luc reporter gene” value ([7]; C2C12 myoblasts, pCMV-CnA*) of the same compound?
The value was “almost completely inhibit”.

And the “effect alone on activity of reporter constructs” value ([7]; TATA-luc, IL-2-luc, Mb-luc, no CnA*)?
The value was “no effect”.

What about the “effect on PMA/ionophore activation of the myoglobin enhancer (Mb-luc)” value ([7]; endogenous calcineurin, C2C12 myoblasts and myotubes) of the same compound?
Its value is “inhibited”.

What about the “binding to CnA(342)” value ([8]; lacks calmodulin and calcineurin B binding regions) of the same compound?
The value was “did not disrupt the interaction”.

What about the “binding to CnA(266)” value ([8]; lacks carboxyl-terminal half of the catalytic domain) of the same compound?
The value was “no longer capable of binding”.

What about the “effect on transcriptional activation mediated by NFAT (IL-2-luc)” value [9] of the same compound?
The value was “does not inhibit”.

And the “effect on Gal4-VP16 induction of UASg-TATA-luc” value [10]?
The value was “not affected”.
